In the NIST ThermoML archive (doi:10.1016/j.fluid.2007.06.012):

Settings: Liquid, Closed cell (Static) method

FC(F)(F)C(F)(F)F [hexafluoroethane]
Settings	vapor or sublimation pressure [kPa]
243.33 K	769
245.32 K	816
249.31 K	928
253.29 K	1048
257.31 K	1183
261.29 K	1328
265.28 K	1489
269.27 K	1659
273.27 K	1847
277.24 K	2050
281.23 K	2270
283.23 K	2387
285.23 K	2509
287.22 K	2636
289.22 K	2769
290.23 K	2839
290.72 K	2873
291.22 K	2909
291.72 K	2946
292.22 K	2982
